Key:
Assay type in all cases: cell-based
[1] = system: MCF-7 (MCT1 expressing estrogen receptor positive human breast cancer cell line); assay: MTT in vitro cytotoxicity assay, MCF-7; conditions: MCF7, MCF-7 cells
Procedure: (§1) Cell line MDA-MB-231 (MCT4 expressing human triple negative breast cancer cell line), cell line MCF-7 (MCT1 expressing estrogen receptor positive human breast cancer cell line), and cell line 4T1 (MCT1 expressing metastatic murine breast cancer cell line) were used for testing the in vitro cytotoxicity of compounds 1-d, 2, and 3 using the MTT assay available from ThermoFisher Scientific. In addition, Compounds 1-d, 2, and 3 were also evaluated for MCT1 inhibition activity in RBE4 (MCT1 expressing rat brain endothelial 4 cell line) and MCT4 inhibition activity in MDA-MB-231 cell lines by measuring the IC50 values using the MCT lactate inhibition assays (Gurrapu S, Jonnalagadda S K, Alam M A, Nelson G L, Sneve M G, Drewes L R, Venkatram R. Mereddy. Monocarboxylate transporter 1 inhibitors as potential anti-cancer agents. ACS. Med. Chem. Lett., 2015, 6, 558-561.).

MCT4 = biological target: T1, MCT4 (Homo sapiens, UniProt O15427); assay: MCT lactate inhibition assay, MCT4 in MDA-MB-231; conditions: MDA-MB-231 cells
T1 construct: Cell line MDA-MB-231 (MCT4 expressing human triple negative breast cancer cell line); endogenous in cells; host or cells: MDA-MB-231 human triple negative breast cancer cells
T1 sequence (O15427 2-465 limits assumed): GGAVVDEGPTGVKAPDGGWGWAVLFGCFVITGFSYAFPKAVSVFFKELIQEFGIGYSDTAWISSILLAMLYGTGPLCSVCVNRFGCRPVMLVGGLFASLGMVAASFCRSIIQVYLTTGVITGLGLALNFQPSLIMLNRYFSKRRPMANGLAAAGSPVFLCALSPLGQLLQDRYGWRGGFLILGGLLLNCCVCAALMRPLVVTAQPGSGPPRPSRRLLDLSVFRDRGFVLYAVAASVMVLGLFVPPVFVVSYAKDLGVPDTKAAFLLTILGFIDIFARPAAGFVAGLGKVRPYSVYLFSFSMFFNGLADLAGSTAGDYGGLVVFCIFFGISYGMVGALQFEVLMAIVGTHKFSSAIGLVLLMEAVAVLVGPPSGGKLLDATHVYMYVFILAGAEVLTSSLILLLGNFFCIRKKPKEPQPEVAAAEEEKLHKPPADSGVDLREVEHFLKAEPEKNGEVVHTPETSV
T1 sequence (P35613 140-385 partner limits assumed): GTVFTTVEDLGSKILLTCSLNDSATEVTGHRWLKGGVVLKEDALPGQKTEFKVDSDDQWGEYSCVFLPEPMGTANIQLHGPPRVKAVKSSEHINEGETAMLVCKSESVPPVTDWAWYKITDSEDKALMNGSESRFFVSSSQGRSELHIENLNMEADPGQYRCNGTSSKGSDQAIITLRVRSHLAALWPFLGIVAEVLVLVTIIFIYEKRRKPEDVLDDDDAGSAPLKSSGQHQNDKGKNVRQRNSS
Procedure: as §1

[2] = system: 4T1 (MCT1 expressing metastatic murine breast cancer cell line); assay: MTT in vitro cytotoxicity assay, 4T1; conditions: Mus musculus, 4T1 cells
Procedure: as §1

[3] = system: MDA-MB-231 (MCT4 expressing human triple negative breast cancer cell line); assay: MTT in vitro cytotoxicity assay, MDA-MB-231; conditions: MDA-MB-231 cells
Procedure: as §1

MCT1 = biological target: T2, MCT1 (Rattus norvegicus, UniProt P53987); assay: MCT lactate inhibition assay, MCT1 in RBE4; conditions: RBE4 rat brain endothelial cells
T2 construct: endogenous in cells; host or cells: RBE4 rat brain endothelial cells
T2 sequence (P53987 1-494): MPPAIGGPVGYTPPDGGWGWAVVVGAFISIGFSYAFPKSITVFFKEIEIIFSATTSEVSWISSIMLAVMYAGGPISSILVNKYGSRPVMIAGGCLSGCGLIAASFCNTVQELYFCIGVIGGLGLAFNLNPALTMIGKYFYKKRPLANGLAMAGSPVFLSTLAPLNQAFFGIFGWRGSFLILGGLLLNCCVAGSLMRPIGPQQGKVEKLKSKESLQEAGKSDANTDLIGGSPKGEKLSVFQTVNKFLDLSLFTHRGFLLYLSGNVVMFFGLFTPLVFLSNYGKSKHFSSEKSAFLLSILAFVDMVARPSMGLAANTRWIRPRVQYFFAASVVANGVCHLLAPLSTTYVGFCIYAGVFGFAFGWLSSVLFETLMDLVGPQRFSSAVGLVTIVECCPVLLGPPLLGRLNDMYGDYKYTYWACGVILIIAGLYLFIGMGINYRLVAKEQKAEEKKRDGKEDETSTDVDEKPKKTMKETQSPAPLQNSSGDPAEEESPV
T2 sequence (P26453 140-388 partner limits assumed): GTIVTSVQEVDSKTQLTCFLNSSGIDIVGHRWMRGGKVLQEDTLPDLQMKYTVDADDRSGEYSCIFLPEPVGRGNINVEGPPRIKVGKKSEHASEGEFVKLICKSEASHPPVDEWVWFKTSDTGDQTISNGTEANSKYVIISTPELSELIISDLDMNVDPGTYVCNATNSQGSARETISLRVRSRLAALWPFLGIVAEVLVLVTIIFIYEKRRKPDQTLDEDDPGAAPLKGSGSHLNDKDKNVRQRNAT
Procedure: as §1

IC50 (MCT4) [µM] | IC50 (MCT1) [µM] | SMILES | IC50 [1] [µM] | IC50 [2] [µM] | IC50 [3] [µM]
0.02 ± 0.01 | 0.07 ± 0.02 | CN(C)c1ccc(-n2cc(/C=C(\C#N)C(=O)O)c3ccccc32)cc1 [Compound 1-d] | > 250 | 65.4 ± 4.26 | > 250
0.57 ± 0.05 | 0.47 ± 0.05 | N#C/C(=C\c1cn(-c2ccc(NC(=O)Nc3ccc(Cl)c(C(F)(F)F)c3)cc2)c2ccccc12)C(=O)O [Compound 2] | 41.6 ± 20.8 | 76.5 ± 4.86 | 88.1 ± 17.2
0.14 ± 0.04 | 0.11 | N#C/C(=C\c1cn(-c2ccc(NC(=O)c3ccc(NC(=O)Nc4ccc(Cl)c(C(F)(F)F)c4)cc3)cc2)c2ccccc12)C(=O)O [Compound 3] | > 250 | > 250 | > 250

Source: patent US20190135747A1, “INDOLE AND INDAZOLE CYANOCINNAMATE COMPOUNDS AND THERAPEUTIC USES THEREOF” (Regents of the University of Minnesota, priority 2016, published 2019)
